Patent US8952157B2, “Apoptosis-inducing agents for the treatment of cancer and immune and autoimmune diseases” (AbbVie Inc., priority 2008, dated 2015)

Biological target: GST-Bcl-2 (Homo sapiens (Human), UniProt P10415)
Experiment: Time Resolved-Fluorescence Resonance Energy Transfer (TR-FRET) Bcl-2 binding assay
Settings: GST-Bcl-2 1 nM, F-Bak peptide probe 100 nM, Tb-anti-GST antibody 1 nM; Ki by Wang's equation
Summary of the method: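 Ki values derived from TR-FRET displacement of F-Bak peptide from GST-Bcl-2, detected with Tb-labelled anti-GST antibody (ex 340, em 520/495 nm). Compound dilution series started at 50 μM (2× starting concentration); room-temperature incubation 3 hours.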

Chain of GST-Bcl-2 (P10415 whole entry): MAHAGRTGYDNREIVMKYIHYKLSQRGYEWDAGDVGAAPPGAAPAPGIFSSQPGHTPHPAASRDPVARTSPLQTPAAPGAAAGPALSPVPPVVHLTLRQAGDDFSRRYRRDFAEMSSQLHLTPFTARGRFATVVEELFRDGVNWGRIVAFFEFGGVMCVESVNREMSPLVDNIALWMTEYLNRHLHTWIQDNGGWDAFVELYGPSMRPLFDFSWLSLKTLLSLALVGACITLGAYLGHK

| Compound | Ki [nM] |
| --- | --- |
| Cn1cnc2cc(Oc3cc(N4CCN(Cc5ccccc5-c5ccc(Cl)cc5)CC4)ccc3C(=O)NS(=O)(=O)c3ccc(NCCCN4CCOCC4)c([N+](=O)[O-])c3)ccc21 [Example 102, 4-(4-((4′-chloro-1,1′-biphenyl-2-yl)methyl)piperazin-1-yl)-2-((1-methyl-1H-benzimidazol-5-yl)oxy)-N-((4-((3-morpholin-4-ylpropyl)amino)-3-nitrophenyl)sulfonyl)benzamide] | 43.5 |
| CC1(C)CCC(CN2CCN(c3ccc(C(=O)NS(=O)(=O)c4ccc(NC5CCN(C6CCCC6)CC5)c([N+](=O)[O-])c4)c(Oc4cccc(F)c4F)c3)CC2)=C(c2ccc(Cl)cc2)C1 [Example 133, 4-(4-{[2-(4-chlorophenyl)-4,4-dimethylcyclohex-1-en-1-yl]methyl}piperazin-1-yl)-N-({4-[(1-cyclopentylpiperidin-4-yl)amino]-3-nitrophenyl}sulfonyl)-2-(2,3-difluorophenoxy)benzamide] | 0.055 |
| CC1(C)CCC(CN2CCN(c3ccc(C(=O)NS(=O)(=O)c4ccc(NC5CCN(C6CCOCC6)CC5)c([N+](=O)[O-])c4)c(Oc4cccc(Cl)c4)c3)CC2)=C(c2ccc(Cl)cc2)C1 [Example 127, 2-(3-chlorophenoxy)-4-(4-{[2-(4-chlorophenyl)-4,4-dimethylcyclohex-1-en-1-yl]methyl}piperazin-1-yl)-N-({3-nitro-4-[(1-tetrahydro-2H-pyran-4-ylpiperidin-4-yl)amino]phenyl}sulfonyl)benzamide] | 0.03 |
| CC1(C)CCC(CN2CCN(c3ccc(C(=O)NS(=O)(=O)c4ccc(NC5CCN(C6CCOCC6)CC5)c([N+](=O)[O-])c4)c(Nc4ccccc4Cl)c3)CC2)=C(c2ccc(Cl)cc2)C1 [Example 226, 2-[(2-chlorophenyl)amino]-4-(4-{[2-(4-chlorophenyl)-4,4-dimethylcyclohex-1-en-1-yl]methyl}piperazin-1-yl)-N-({3-nitro-4-[(1-tetrahydro-2H-pyran-4-ylpiperidin-4-yl)amino]phenyl}sulfonyl)benzamide] | 7.59 |
| CC1(C)CCC(CN2CCN(c3ccc(C(=O)NS(=O)(=O)c4ccc(NC5CCN(C6CCOCC6)CC5)c([N+](=O)[O-])c4)c(Oc4cc5cc[nH]c5cc4C(F)(F)F)c3)CC2)=C(c2ccc(Cl)cc2)C1 [Example 218, 4-(4-{[2-(4-chlorophenyl)-4,4-dimethylcyclohex-1-en-1-yl]methyl}piperazin-1-yl)-N-({3-nitro-4-[(1-tetrahydro-2H-pyran-4-ylpiperidin-4-yl)amino]phenyl}sulfonyl)-2-{[6-(trifluoromethyl)-1H-indol-5-yl]oxy}benzamide] | 0.175 |
| CC1(C)CCC(CN2CCN(c3ccc(C(=O)NS(=O)(=O)c4ccc(NC5CCN(C6CCOCC6)CC5)c([N+](=O)[O-])c4)c(Oc4ccc(O)cc4Cl)c3)CC2)=C(c2ccc(Cl)cc2)C1 [Example 216, 2-(2-chloro-4-hydroxyphenoxy)-4-(4-{[2-(4-chlorophenyl)-4,4-dimethylcyclohex-1-en-1-yl]methyl}piperazin-1-yl)-N-({3-nitro-4-[(1-tetrahydro-2H-pyran-4-ylpiperidin-4-yl)amino]phenyl}sulfonyl)benzamide] | 0.027 |
| Cc1c(O)cccc1Oc1cc(N2CCN(CC3=C(c4ccc(Cl)cc4)CC(C)(C)CC3)CC2)ccc1C(=O)NS(=O)(=O)c1ccc(NC2CCN(C)CC2)c([N+](=O)[O-])c1 [Example 159] | 0.526 |
| CC1(C)CCC(CN2CCN(c3ccc(C(=O)NS(=O)(=O)c4ccc(NC5CCN(C6CCOCC6)CC5)c([N+](=O)[O-])c4)c(Oc4cc5cc[nH]c5cc4Cl)c3)CC2)=C(c2ccc(Cl)cc2)C1 [Example 242, 2-[(6-chloro-1H-indol-5-yl)oxy]-4-(4-{[2-(4-chlorophenyl)-4,4-dimethylcyclohex-1-en-1-yl]methyl}piperazin-1-yl)-N-({3-nitro-4-[(1-tetrahydro-2H-pyran-4-ylpiperidin-4-yl)amino]phenyl}sulfonyl)benzamide] | 0.092 |
| O=C(NS(=O)(=O)c1ccc(NCC2CCOCC2)c([N+](=O)[O-])c1)c1ccc(N2CCN(Cc3ccccc3-c3ccc(Cl)cc3)CC2)cc1Oc1cccc([N+](=O)[O-])c1 [Example 8, 4-(4-((4′-chloro-1,1′-biphenyl-2-yl)methyl)piperazin-1-yl)-2-(3-nitrophenoxy)-N-((3-nitro-4-((tetrahydro-2H-pyran-4-ylmethyl)amino)phenyl)sulfonyl)benzamide] | 3.45 |
| CC1(C)CCC(CN2CCN(c3ccc(C(=O)NS(=O)(=O)c4ccc(NCC5CCOCC5)c([N+](=O)[O-])c4)c(Oc4ccc(NCC(F)F)nc4)c3)CC2)=C(c2ccc(Cl)cc2)C1 [Example 376, 4-(4-{[2-(4-chlorophenyl)-4,4-dimethylcyclohex-1-en-1-yl]methyl}piperazin-1-yl)-2-({6-[(2,2-difluoroethyl)amino]pyridin-3-yl}oxy)-N-({3-nitro-4-[(tetrahydro-2H-pyran-4-ylmethyl)amino]phenyl}sulfonyl)benzamide] | 57.7 |
| CC1(C)CCC(CN2CCN(c3ccc(C(=O)NS(=O)(=O)c4ccc(OCC#CCN5CCOCC5)c([N+](=O)[O-])c4)c(Oc4cc5cc[nH]c5cc4F)c3)CC2)=C(c2ccc(Cl)cc2)C1 [Example 317, 4-(4-{[2-(4-chlorophenyl)-4,4-dimethylcyclohex-1-en-1-yl]methyl}piperazin-1-yl)-2-[(6-fluoro-1H-indol-5-yl)oxy]-N-({4-[(4-morpholin-4-ylbut-2-ynyl)oxy]-3-nitrophenyl}sulfonyl)benzamide] | 0.205 |
| O=C(NS(=O)(=O)c1ccc(NCCCN2CCOCC2)c([N+](=O)[O-])c1)c1ccc(N2CCN(Cc3ccccc3-c3ccc(Cl)cc3)CC2)cc1Oc1cccc(CO)c1 [Example 9, 4-(4-((4′-chloro-1,1′-biphenyl-2-yl)methyl)piperazin-1-yl)-2-(3-(hydroxymethyl)phenoxy)-N-((4-((3-morpholin-4-ylpropyl)amino)-3-nitrophenyl)sulfonyl)benzamide] | 0.754 |
| CCN1CCOCC1COc1ccc(S(=O)(=O)NC(=O)c2ccc(N3CCN(CC4=C(c5ccc(Cl)cc5)CC(C)(C)CC4)CC3)cc2Oc2cc3cc[nH]c3cc2F)cc1[N+](=O)[O-] (centres unmarked) [Example 328, 4-(4-{[2-(4-chlorophenyl)-4,4-dimethylcyclohex-1-en-1-yl]methyl}piperazin-1-yl)-N-({4-[(4-ethylmorpholin-3-yl)methoxy]-3-nitrophenyl}sulfonyl)-2-[(6-fluoro-1H-indol-5-yl)oxy]benzamide] | 0.068 |
| CC(C)N1CCC(Nc2ccc(S(=O)(=O)NC(=O)c3ccc(N4CCN(CC5=C(c6ccc(Cl)cc6)CC(C)(C)CC5)CC4)cc3Oc3cccc(Cl)c3)cc2[N+](=O)[O-])CC1 [Example 175, 2-(3-chlorophenoxy)-4-(4-{[2-(4-chlorophenyl)-4,4-dimethylcyclohex-1-en-1-yl]methyl}piperazin-1-yl)-N-({4-[(1-isopropylpiperidin-4-yl)amino]-3-nitrophenyl}sulfonyl)benzamide] | 0.046 |
| CC1(C)CCC(CN2CCN(c3ccc(C(=O)NS(=O)(=O)c4ccc(NC5CCN(C6CCOCC6)CC5)c([N+](=O)[O-])c4)c(Oc4ccccc4Cl)c3)CC2)=C(c2ccc(Cl)cc2)C1 [Example 115, 2-(2-chlorophenoxy)-4-(4-{[2-(4-chlorophenyl)-4,4-dimethylcyclohex-1-en-1-yl]methyl}piperazin-1-yl)-N-({3-nitro-4-[(1-tetrahydro-2H-pyran-4-ylpiperidin-4-yl)amino]phenyl}sulfonyl)benzamide] | 0.042 |
| CC1(C)CCC(CN2CCN(c3ccc(C(=O)NS(=O)(=O)c4ccc(N[C@H]5CCCN(C6CCOCC6)C5)c([N+](=O)[O-])c4)c(Oc4cc5cc[nH]c5cc4F)c3)CC2)=C(c2ccc(Cl)cc2)C1 [Example 329, 4-(4-{[2-(4-chlorophenyl)-4,4-dimethylcyclohex-1-en-1-yl]methyl}piperazin-1-yl)-2-[(6-fluoro-1H-indol-5-yl)oxy]-N-[(3-nitro-4-{[(3S)-1-tetrahydro-2H-pyran-4-ylpiperidin-3-yl]amino}phenyl)sulfonyl]benzamide] | 0.108 |
| CC1(C)CCC(CN2CCN(c3ccc(C(=O)NS(=O)(=O)c4ccc(NCC5CCOCC5)c([N+](=O)[O-])c4)c(Oc4ccc5[nH]cc(CCN)c5c4)c3)CC2)=C(c2ccc(Cl)cc2)C1 [Example 299, 2-{[3-(2-aminoethyl)-1H-indol-5-yl]oxy}-4-(4-{[2-(4-chlorophenyl)-4,4-dimethylcyclohex-1-en-1-yl]methyl}piperazin-1-yl)-N-({3-nitro-4-[(tetrahydro-2H-pyran-4-ylmethyl)amino]phenyl}sulfonyl)benzamide] | 51.7 |
| CN1CCC(Nc2ccc(S(=O)(=O)NC(=O)c3ccc(N4CCN(CC5=C(c6ccc(Cl)cc6)CC(C)(C)CC5)CC4)cc3Oc3cc4cc[nH]c4c(F)c3F)cc2[N+](=O)[O-])CC1 [Example 200, 4-(4-{[2-(4-chlorophenyl)-4,4-dimethylcyclohex-1-en-1-yl]methyl}piperazin-1-yl)-2-[(6,7-difluoro-1H-indol-5-yl)oxy]-N-({4-[(1-methylpiperidin-4-yl)amino]-3-nitrophenyl}sulfonyl)benzamide] | 0.081 |
| CC(=O)Nc1ccc(Oc2cc(N3CCN(Cc4ccccc4-c4ccc(Cl)cc4)CC3)ccc2C(=O)NS(=O)(=O)c2ccc(NCC3CCOCC3)c([N+](=O)[O-])c2)cc1 [Example 82, 2-(4-(acetylamino)phenoxy)-4-(4-((4′-chloro-1,1′-biphenyl-2-yl)methyl)piperazin-1-yl)-N-((3-nitro-4-((tetrahydro-2H-pyran-4-ylmethyl)amino)phenyl)sulfonyl)benzamide] | 512 |
| CC1(C)CCC(CN2CCN(c3ccc(C(=O)NS(=O)(=O)c4ccc(NCC5CCOCC5)c([N+](=O)[O-])c4)c(Oc4cnc(N)c(C#N)c4)c3)CC2)=C(c2ccc(Cl)cc2)C1 [Example 352, 2-[(6-amino-5-cyanopyridin-3-yl)oxy]-4-(4-{[2-(4-chlorophenyl)-4,4-dimethylcyclohex-1-en-1-yl]methyl}piperazin-1-yl)-N-({3-nitro-4-[(tetrahydro-2H-pyran-4-ylmethyl)amino]phenyl}sulfonyl)benzamide] | 0.079 |
